Laboratory results from patent EP0375449B1, “Benzopyran-type compounds” (BEECHAM GROUP PLC, priority 1988, dated 1990).

How the values were obtained:
[1] = test system: Spontaneously hypertensive rats; assay: Antihypertensive activity: systolic blood pressure by tail cuff method; type: in vivo; settings: maximum at 1-4 hours post dose
Method: Systolic blood pressures were recorded by a modification of the tail cuff method described by I.M. Claxton, M.G. Palfreyman, R.H. Poyser, R.L. Whiting, European Journal of Pharmacology, 37, 179 (1976). A W+W BP recorder, model 8005 was used to display pulses. Prior to all measurements rats were placed in a heated environment (33.5 ± 0.5 °C) before transfer to a restraining cage. Each determination of blood pressure was the mean of at least 5 readings. Spontaneously hypertensive rats (ages 12-18 weeks) with systolic blood pressures >180 mmHg were considered hypertensive.

trachea = assay: Bronchodilator activity: relaxation of isolated tracheal spirals; type: tissue-based, guinea pigs; settings: Cavia porcellus; fall in resting tension as percentage of total relaxation evoked by 10⁻³M isoprenaline; guinea pig tracheal spirals, Krebs solution 37°C; read-out: IC₅₀
Method: Male guinea pigs (300-600g) were stunned by a blow to the head and bled from the carotid artery. The trachea was exposed, dissected free of connective tissue, and transferred to oxygenated Krebs solution at 37 °C. Next, spirals (2 per trachea) were prepared by cutting the whole trachea spirally along its longitudinal axis and then dividing this spiral lengthwise. Each preparation was mounted, using silk thread, in a 10ml organ bath filled with krebs solution at 37 °C and bubbled with 5% CO₂ with O₂. The resting tension of the preparations was set at 2g and changes in muscle tension were monitored isometrically by means of a UFI (2oz) force and displacement transducer (Ormed Ltd) connected to a Linseis pen recorder. All preparations were allowed to equilibrate for 60 minutes. During this equilibration period the preparations were washed by upward displacement at 15 minute intervals and, if necessary, the resting tension was readjusted to 2g using a mechanical micromanipulator system.
Once a steady resting tension had been obtained, the preparations were dosed simultaneously with the test compound (10⁻⁸-2x10⁻⁵M), and finally a maximum relaxation achieved by addition of 10⁻³M isoprenaline. The fall in tension evoked by the test compound was expressed as a percentage of the total relaxation evoked in the presence of 10⁻³ isoprenaline. […]

SMILES	% b.p. fall ([1]; Dose 3.0 mg/kg) [%]	% b.p. fall ([1]; Dose 0.3 mg/kg)	further results
CC(C)(C)OC(=O)N[C@H]1[C@H](O)c2cc(C#N)ccc2OC1(C)C (relative stereo) [Example E1, trans-6-Cyano-2,2-dimethyl-3,4-dihydro-3-(t-butoxycarbonyl)amino-2H-1-benzopyran-4-ol]	30	–	–
CC1(C)Oc2ccc(C#N)cc2[C@@H](O)[C@@H]1NC(=O)c1ccc(F)cc1 (relative stereo) [Example E3, trans-6-Cyano-2,2-dimethyl-3,4-dihydro-3-(4-fluorobenzoylamino)-2H-1-benzopyran-4-ol]	42	–	–
CC(C)(C)NC(=O)N[C@H]1[C@H](O)c2cc(C#N)ccc2OC1(C)C (relative stereo) [Example E5, trans-6-Cyano-2,2-dimethyl-3,4-dihydro-3-(t-butylureido)-2H-1-benzopyran-4-ol]	–	≧40%	IC50 (trachea): 2.8 µM
CC(C)NC(=O)N[C@H]1[C@H](O)c2cc(C#N)ccc2OC1(C)C (relative stereo) [Example E14, trans-6-Cyano-2,2-dimethyl-3,4-dihydro-3-(isopropylureido)-2H-1-benzopyran-4-ol]	–	22%	–
CC(C)(C)C(=O)N[C@H]1[C@H](O)c2cc(C#N)ccc2OC1(C)C (relative stereo) [Example E21, trans-6-Cyano-2,2-dimethyl-3,4-dihydro-3-trimethylacetylamino-2H-1-benzopyran-4-ol]	–	–	% b.p. fall ([1]; Dose 1.0 mg/kg): 36%
